Experimental data: patent US20250134902A1, “DRUG REPURPOSING FOR DELAYED TREATMENT OF ISCHEMIC STROKE” (UNIVESRITY OF NORTH TEXAS HEALTH SCIENCE CENTER, priority 2022, published 2025)

Legend:
[1] = Pharmacokinetics of per oral oxeladin in plasma and brain; format: in vivo, rat; settings: for time after dosing at which detected in brain / time after dosing at which detected in plasma: rat, 135 mg/kg
Experimental: Evaluating the pharmacokinetics of Sigma receptor agonists. […] Whole blood was harvested into EDTA coated tubes at 30, 60, 120, 240, 720, and 1440 minutes from rats following euthanasia by CO2 inhalation. Plasma was processed from whole blood by centrifugation for 10 min at 10,000 rpm and frozen at −80° C. until assayed. The brains were collected, weighed, snap frozen in liquid nitrogen, and stored at −80° C. until processed.
For standards, 98 μl blank plasma was added to an Eppendorf tube spiked with 2 μl of […] (IS). For QCs, add 98.8 μl blank plasma was added to an Eppendorf tube spiked with 1.2 μl of IS. 100 μl plasma was mixed with 200 μl of acetonitrile containing 0.15% formic acid and 37.5 ng/ml IS (IS final conc.=25 ng/ml), and 100 microliters brain homogenized solution was mixed with 200 microliters of acetonitrile containing 0.15% formic acid and 60 ng/ml IS (IS final conc.=40 ng/ml). The samples were vortexed 15 sec, incubated at room temp for 10 min and spun 2×13,200 rpm in a standard microcentrifuge. The supernatant was then analyzed by LC/MS/MS (QTRAP® 3200) according to the following parameters:
Ion Source/Gas Parameters: CUR=25, CAD=medium, IS=5000, TEM=700, GS1=70, GS2=70.
Buffer A: Water+0.1% formic acid; Buffer B: ACN+0.1% formic acid; flow rate 1.5 ml/min; column Agilent Eclipse XDB-C18 column, 5 micron packing 50×4.6 mm size; 0-1.5 min 3% B, 1.5-2.0 min gradient to 100% B, 2.0-3.5 min 100% B, 3.5-3.6 min gradient to 3% B, 3.6-4.5 3% B. IS: n-benzylbenzamide (Sigma-Aldrich, lot #02914LH, in ACN, transition 212.1 to 91.1); Compound transition 336.127/100.1.

[2] = system: BDNF; assay: BDNF western blot in ischemic penumbra after tMCAO; format: in vivo, rat; settings: single dose 135 mg/kg 48 hours after tMCAO; P=0.02
Experimental: Rats were sacrificed under isoflurane anesthesia 2, 6, or 24 hours after dosing, and brains were removed to assess protein expression in the ischemic and contralateral cortex by immunoblotting. Brains were rapidly removed, chilled for 2 min in ice-cold saline, and sliced into 2 mm coronal slices with a brain matrix for rapid 2,3,5 triphenyltetrazolium chloride (TTC) staining. Sections were immersed in 1% TTC for 1 minute at room temperature to reveal the extent of the infarct. Cortical penumbra tissue was collected, snap frozen, and stored at −80° C. for subsequent western blotting. Protein was extracted from tissue using T-PER™ reagent with HALT protease inhibitor (Thermo-Pierce), and concentrations were determined with the PIERCE® BCA assay (Thermo-Pierce). Protein was separated on 4-20% SDS-PAGE gels (BioRad) and transferred to nitrocellulose. Blots were probed with primary antibodies for BDNF (Abcam ab226842; 1:1000) and goat anti-rabbit-HRP secondary (Thermo 32260; 1:10,000). Bands were visualized by ECL with PIERCE® SUPERSIGNAL® West Dura Femto (Thermo-Pierce) reagent using a UVP EpiChemi3. Density was assessed with Image J and normalized to β-actin (Thermo MA1-91399; 1:1000).

[3] = molecular target: T1, human Sigma-2 receptor (S2R) (Homo sapiens, UniProt Q5BJF2); assay: Radioligand competition binding at Sigma-2 receptor ([3H]-DTG, untransfected MCF-7); settings: displacement of 2.5 nM [3H]DTG, untransfected MCF-7 cells; average of 2-3 experiments ± SEM; read-out: S2R affinity (Ki)
T1 construct: these cells express the endogenous S2R; endogenous in cells; host or cells: untransfected human MCF-7 cells
T1 sequence (Q5BJF2 whole entry): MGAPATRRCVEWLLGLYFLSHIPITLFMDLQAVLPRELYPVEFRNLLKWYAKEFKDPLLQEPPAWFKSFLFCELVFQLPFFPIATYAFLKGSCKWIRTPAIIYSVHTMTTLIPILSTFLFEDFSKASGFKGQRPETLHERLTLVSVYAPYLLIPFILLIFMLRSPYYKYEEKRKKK
Experimental: Ki values were calculated from IC50 values using the Cheng-Prusoff equation.

[4] = 135 mg/kg p.o., listed as oxeladin

CCN(CC)CCOCCOC(=O)C(CC)(CC)c1ccccc1 [Oxeladin]
half-life, brain ([1]; rat brain, 135 mg/kg oral gavage (figure legend)): greater than 4 hours | AUClast, brain ([1]; rat brain, 135 mg/kg p.o.): 423726 ng·min/g | Terminal T1/2 (terminal elimination half-life), brain ([1]; rat brain, 135 mg/kg p.o.): 5.32 h | Tmax (time to obtain maximum concentration), brain ([1]; rat brain, 135 mg/kg p.o.): 0.5 h | half-life, plasma ([1]; rat plasma, 135 mg/kg oral gavage (figure legend)): greater than 4 hours | AUClast, plasma ([1]; rat plasma, 135 mg/kg p.o.): 122293 ng·min/mL | Terminal T1/2 (terminal elimination half-life), plasma ([1]; rat plasma, 135 mg/kg p.o.): 4.15 h | Tmax (time to obtain maximum concentration), plasma ([1]; rat plasma, 135 mg/kg p.o.): 0.5 h | time after dosing at which detected in brain ([1]; 135 mg/kg p.o.): ≤ 30 min | time after dosing at which detected in plasma ([1]; 135 mg/kg p.o.): ≤ 30 min | time after dosing at which detected in brain [1, 4]: 30 min | time after dosing at which detected in plasma [1, 4]: 30 min | ratio of mature 17 kDa BDNF to 42 kDa pro-BDNF in the ischemic penumbra [2]: significantly increased | Ki [3]: 148 ± 64 nM
